Results from patent US20250057827A1, “CYTOTOXICITY TARGETING CHIMERAS FOR PROSTATE SPECIFIC MEMBRANE ANTIGEN-EXPRESSING CELLS” (GLAXOSMITHKLINE INTELLECTUAL PROPERTY DEVELOPMENT LIMITED, priority 2022, published 2025).

These compounds were tested against T1, PSMA (target cells: LNCaP cells) (Homo sapiens, UniProt Q04609) (assay: Antibody dependent cellular cytotoxicity (ADCC) reporter assay). Conditions: anti-cotinine antibody (SEQ ID NO: 11/12), Jurkat FcγRIIIa NFAT-luciferase reporter cells, 12-18 hours, EC50 in molar, average if more than one run.
T1 construct: Target cells: LNCaP cells (typically 1000-20,000 cells per well); endogenous in cells; host or cells: LNCaP cells (target cells); Jurkat FcγRIIIa/NFAT-luciferase reporter cells also in the well
T1 sequence (Q04609 whole entry): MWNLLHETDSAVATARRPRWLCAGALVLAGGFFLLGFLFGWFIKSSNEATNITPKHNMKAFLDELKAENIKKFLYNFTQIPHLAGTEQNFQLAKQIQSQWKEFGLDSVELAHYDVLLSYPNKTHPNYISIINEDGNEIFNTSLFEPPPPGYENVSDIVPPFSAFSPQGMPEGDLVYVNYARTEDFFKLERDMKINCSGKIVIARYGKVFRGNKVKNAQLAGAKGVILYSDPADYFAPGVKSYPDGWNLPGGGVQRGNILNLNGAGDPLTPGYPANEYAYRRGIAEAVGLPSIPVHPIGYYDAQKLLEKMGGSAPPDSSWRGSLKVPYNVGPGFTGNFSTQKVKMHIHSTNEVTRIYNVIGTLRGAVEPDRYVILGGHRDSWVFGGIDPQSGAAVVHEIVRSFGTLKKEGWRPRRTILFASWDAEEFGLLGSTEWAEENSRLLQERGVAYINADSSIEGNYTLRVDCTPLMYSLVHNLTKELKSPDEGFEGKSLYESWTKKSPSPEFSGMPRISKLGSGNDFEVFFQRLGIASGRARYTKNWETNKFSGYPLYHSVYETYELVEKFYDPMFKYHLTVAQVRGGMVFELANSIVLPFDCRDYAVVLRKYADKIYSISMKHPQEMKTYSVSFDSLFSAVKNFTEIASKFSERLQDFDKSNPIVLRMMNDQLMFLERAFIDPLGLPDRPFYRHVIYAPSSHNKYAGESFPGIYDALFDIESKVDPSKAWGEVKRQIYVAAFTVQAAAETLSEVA
Format: cell-based
Design: key to ADCC Reporter Assay pEC50: Inactive: inactive = pEC50 < 5
Description: An antibody dependent cellular cytotoxicity (ADCC) reporter assay was conducted using the following four assay components: (i) ARM compound of Formula (I) targeting PSMA (concentrations ranging from 1 pM to 10 μM); (ii) anti-cotinine antibody having a heavy chain sequence of SEQ ID NO: 11 and a light chain sequence of SEQ ID NO: 12 (rabbit variable region with human IgG1 Fc domain containing DE mutation (S239D/I332E)) (concentrations ranging from 0.01 μg/mL-200 μg/mL); (iii) Target cells: LNCaP cells (typically 1000-20,000 cells per well); and (iv) Reporter cells—Jurkat cells engineered to express FcγRIIIa with a reporter gene luciferase under the control of the NFAT promoter (typically 3000-75,000 cells per well). Reagents were combined in final volume of 20 μL in 384—well tissue culture treated plate. All four assay components were incubated together for about 12-18 hours. Thereafter, BioGlo Detection reagent (Promega) was added to the wells to lyse the cells and provide a substrate for the luciferase reporter protein.
Luminescence signal was measured on a microplate reader capable of measuring luminescence and signal: background was calculated by dividing the signal of a test well by the signal obtained when no compound of formula (I) was included in the assay. EC50 calculations were done using Graphpad Prism Software, specifically a nonlinear regression curve fit (Y=Bottom+(Top−Bottom)/(1+10^((Log EC50−X)*HillSlope))).
ARMs compounds of Formula (I) were tested for ADCC activity in the above assay in one or more experimental runs and the results are shown in Table 3 below. Potency of the compounds of Formula (I) is reported as a pEC50 values. The pEC50 value is the negative log of the EC50 value, wherein the EC50 value is half maximal effective concentration measured in molar (M). For compounds tested in more than one experimental run, the pEC50 value is reported as an average.

SMILES | ADCC Reporter Assay pEC50
CN1C(=O)C[C@H](C(=O)N[C@@H](Cc2ccc3ccccc3c2)C(=O)NCCCC[C@H](NC(=O)N[C@@H](CCC(=O)O)C(=O)O)C(=O)O)[C@H]1c1cccnc1 [Example 10, (((S)-1-Carboxy-5-((S)-2-((2S,3S)-1-methyl-5-oxo-2-(pyridin-3-yl)pyrrolidine-3-carboxamido)-3-(naphthalen-2-yl)propanamido)pentyl)carbamoyl)-L-glutamic acid] | Inactive^1

Same assay, conditions: anti-cotinine antibody (SEQ ID NO: 11/12), Jurkat FcγRIIIa NFAT-luciferase reporter cells, 12-18 hours, EC50 in molar, average if more than one run, read-out: ADCC Reporter Assay pEC50 (converted)

SMILES | EC50
CN1C(=O)C[C@H](C(=O)NCCO[C@H]2CC[C@H](OCCCC(=O)N[C@H]3CC[C@H](C(=O)N4CCN(C(=O)CC[C@H](NC(=O)N[C@@H](CCC(=O)O)C(=O)O)C(=O)O)CC4)CC3)CC2)[C@H]1c1cccnc1 [Example 1, (((S)-1-Carboxy-4-(4-((1R,4R)-4-(4-(((1S,4R)-4-(2-((2S,3S)-1-methyl-5-oxo-2-(pyridin-3-yl)pyrrolidine-3-carboxamido)ethoxy)cyclohexyl)oxy)butanamido)cyclohexane-1-carbonyl)piperazin-1-yl)-4-oxobutyl)carbamoyl)-L-glutamic acid] | 50.1 nM
CN1C(=O)C[C@H](C(=O)NCCOCCOCCOCCOCCOCCOCCOCCOCCOCCOCCOCCOCCC(=O)N[C@@H](Cc2ccc3ccccc3c2)C(=O)NCCCC[C@H](NC(=O)N[C@@H](CCC(=O)O)C(=O)O)C(=O)O)[C@H]1c1cccnc1 [Example 9, (((S)-1-Carboxy-5-((S)-2-(1-((2S,3S)-1-methyl-5-oxo-2-(pyridin-3-yl)pyrrolidin-3-yl)-1-oxo-5,8,11,14,17,20,23,26,29,32,35,38-dodecaoxa-2-azahentetracontan-41-amido)-3-(naphthalen-2-yl)propanamido)pentyl)carbamoyl)-L-glutamic acid] | 8.91 nM
CN1C(=O)C[C@H](C(=O)NCCOCCOCCOCCOCCOCCOCCOCCOCCOCCOCCOCCOCCC(=O)NCCNC(=O)[C@H](Cc2ccccc2)NC(=O)[C@H](Cc2ccccc2)NC(=O)CCCCCCCNC(=O)CC[C@H](NC(=O)N[C@@H](CCC(=O)O)C(=O)O)C(=O)O)[C@H]1c1cccnc1 [Example 7, (47S,50S,64S,68S)-47,50-Dibenzyl-1-((2S,3S)-1-methyl-5-oxo-2-(pyridin-3-yl)pyrrolidin-3-yl)-1,41,46,49,52,61,66-heptaoxo-5,8,11,14,17,20,23,26,29,32,35,38-dodecaoxa-2,42,45,48,51,60,65,67-octaazaheptacontane-64,68,70-tricarboxylic acid] | 126 nM
CN1C(=O)C[C@H](C(=O)NCCO[C@H]2CC[C@H](OCCCC(=O)N[C@H]3CC[C@H](C(=O)NCCNC(=O)CC[C@H](NC(=O)N[C@@H](CCC(=O)O)C(=O)O)C(=O)O)CC3)CC2)[C@H]1c1cccnc1 [Example 3, (9S,13S)-1-((1R,4R)-4-(4-(((1S,4R)-4-(2-((2S,3S)-1-Methyl-5-oxo-2-(pyridin-3-yl)pyrrolidine-3-carboxamido)ethoxy)cyclohexyl)oxy)butanamido)cyclohexyl)-1,6,11-trioxo-2,5,10,12-tetraazapentadecane-9,13,15-tricarboxylic acid] | 126 nM
CN1C(=O)C[C@H](C(=O)NCCNC(=O)[C@H](Cc2ccccc2)NC(=O)[C@H](Cc2ccccc2)NC(=O)CCCCCCCNC(=O)CC[C@H](NC(=O)N[C@@H](CCC(=O)O)C(=O)O)C(=O)O)[C@H]1c1cccnc1 [Example 5, (7S,10S,24S,28S)-7,10-Dibenzyl-1-((2S,3S)-1-methyl-5-oxo-2-(pyridin-3-yl)pyrrolidin-3-yl)-1,6,9,12,21,26-hexaoxo-2,5,8,11,20,25,27-heptaazatriacontane-24,28,30-tricarboxylic acid] | 39.8 nM
CN1C(=O)C[C@H](C(=O)NCCO[C@H]2CC[C@H](OCCCC(=O)N[C@H]3CC[C@H](C(=O)N[C@H]4CC[C@H](NC(=O)CC[C@H](NC(=O)N[C@@H](CCC(=O)O)C(=O)O)C(=O)O)CC4)CC3)CC2)[C@H]1c1cccnc1 [Example 4, (((S)-1-Carboxy-4-(((1R,4R)-4-((1R,4R)-4-(4-(((1S,4R)-4-(2-((2S,3S)-1-methyl-5-oxo-2-(pyridin-3-yl)pyrrolidine-3-carboxamido)ethoxy)cyclohexyl)oxy)butanamido)cyclohexane-1-carboxamido)cyclohexyl)amino)-4-oxobutyl)carbamoyl)-L-glutamic acid] | 50.1 nM
CN1C(=O)C[C@H](C(=O)NCCO[C@H]2CC[C@H](OCCCC(=O)N[C@H]3CC[C@H](C(=O)NCCNC(=O)[C@H](Cc4ccccc4)NC(=O)[C@H](Cc4ccccc4)NC(=O)CCCCCCCNC(=O)CC[C@H](NC(=O)N[C@@H](CCC(=O)O)C(=O)O)C(=O)O)CC3)CC2)[C@H]1c1cccnc1 [Example 6, (7S,10S,24S,28S)-7,10-dibenzyl-1-((1R,4S)-4-(4-(((1S,4R)-4-(2-((2S,3S)-1-methyl-5-oxo-2-(pyridin-3-yl)pyrrolidine-3-carboxamido)ethoxy)cyclohexyl)oxy)butanamido)cyclohexyl)-1,6,9,12,21,26-hexaoxo-2,5,8,11,20,25,27-heptaazatriacontane-24,28,30-tricarboxylic acid] | 39.8 nM
CN1C(=O)C[C@H](C(=O)NCCO[C@H]2CC[C@H](OCCCC(=O)N[C@H]3CC[C@H](C(=O)N[C@H]4CC[C@@H](NC(=O)CC[C@H](NC(=O)N[C@@H](CCC(=O)O)C(=O)O)C(=O)O)CC4)CC3)CC2)[C@H]1c1cccnc1 [Example 2, (((S)-1-Carboxy-4-(((1S,4S)-4-((1R,4S)-4-(4-(((1S,4R)-4-(2-((2S,3S)-1-methyl-5-oxo-2-(pyridin-3-yl)pyrrolidine-3-carboxamido)ethoxy)cyclohexyl)oxy)butanamido)cyclohexane-1-carboxamido)cyclohexyl)amino)-4-oxobutyl)carbamoyl)-L-glutamic acid] | 50.1 nM
CN1C(=O)C[C@H](C(=O)NCCO[C@H]2CC[C@H](OCCCC(=O)N[C@H]3CC[C@H](C(=O)N[C@@H](Cc4ccc5ccccc5c4)C(=O)NCCCC[C@H](NC(=O)N[C@@H](CCC(=O)O)C(=O)O)C(=O)O)CC3)CC2)[C@H]1c1cccnc1 (racemic) [Example 8, (((S)-1-Carboxy-5-((S)-2-((1R,4S)-4-(4-(((1S,4R)-4-(2-((2S,3S)-1-methyl-5-oxo-2-(pyridin-3-yl)pyrrolidine-3-carboxamido)ethoxy)cyclohexyl)oxy)butanamido)cyclohexane-1-carboxamido)-3-(naphthalen-2-yl)propanamido)pentyl)carbamoyl)-L-glutamic acid] | 2.24 nM
